Test results: patent US5556858A, “Cis-2-[(4-heteroaryl-1-piperazinyl)alkyl] hexahydro-1H-isoindole-1,3 (2H)-diones and related compounds and their therapeutic utility” (Hoechst-Roussel Pharmaceuticals, Inc., priority 1995, dated 1996)
Counter-ions that a name gives are not always drawn.

System: apomorphine climbing
Assay: climbing mice assay (antipsychotic activity)
Type: in vivo, mice (CK-1 male)
Settings: ip, apomorphine 1.5 mg/kg subcutaneously, climbing score vs control; for ED50: Mus musculus
Description: Subject […] male mice (23-27 grams) are group-housed under standard laboratory conditions. The mice are individually placed in wire mesh stick cages (4"×10") and are allowed one hour for adaption and exploration of the new environment.
For evaluation of climbing, 3 readings are taken at 10, 20, and 30 minutes-after apomorphine administration according to the following scale: […]
Mice consistently climbing before the injection of apomorphine are discarded.
With full-developed apomorphine climbing, the animals are hanging on to the cage walls, rather motionless, over long periods of time. By contrast, climbs due to mere motor stimulation usually only last a few seconds.
The climbing scores are individually totaled (maximal score: 6 per mouse over 3 readings) and the total score of the control group (vehicle intraperitoneally-apomorphine subcutaneously) is set to 100%.

SMILES | ED50 [mg/kg] | CLIMBING MOUSE ASSAY ED50 [mg/kg]
Fc1ccc2c(c1)CN(CCN1CCC(c3n[nH]c4cc(F)ccc34)CC1)C2.O=C(O)/C=C\C(=O)O.O=C(O)/C=C\C(=O)O [4-(6-Fluoro-1H-indazol-3-yl)-1-[2-(5-fluoro-2,3-dihydro-1H-isoindol-2-yl)ethyl]piperidine dimaleate] | 0.27 | –
COc1cc(C(C)=O)ccc1OCCCN1CCC(c2nsc3cc(F)ccc23)CC1.Cl [1-[4-[3-[4-(6-Fluoro-1,2-benzisothiazol-3-yl)-1-piperidinyl]propoxy]-3-methoxy-phenyl]ethanone hydrochloride] | 0.16 | –
O=C(CN1CCC(c2noc3cc(F)ccc23)CC1)N1CCc2ccccc2C1 [1-(1,2,3,4-Tetrahydro-1H-isoquinolin-2-yl)-2-[4-(6-fluoro-1,2-benzosoxazol-3-yl)-1-piperidinyl]-ethanone hydrochloride ethanolate] | 6.25 | –
COc1cc(C(C)=O)ccc1OC/C=C\CN1CCC(c2noc3cc(F)ccc23)CC1 [(Z)-1-[4-[[4-[4-(6-fluoro-1,2-benzisoxazol-3-yl)-1-piperidinyl]-2-butenyl]oxy]-3-methoxy-phenyl]ethanone] | 0.61 | –
Fc1ccc2c(N3CCN(CCCN4Cc5ccccc5C4)CC3)n[nH]c2c1 [4-(6-Fluoro-1H-indazol-3-yl)-1-[3-(2.3-dihydro-1H-isoindol-2-yl)propyl]-piperazine dimaleate] | 0.46 | –
Fc1ccc2c(C3CCN(CCCOc4cccc5cnccc45)CC3)noc2c1 [6-Fluoro-3-[1-[3-[(isoquinol-5-yl)oxylpropyl]-4-piperidinyl]-1,2-benzisoxazole sesquifumarate] | 0.172 | –
C=C1c2ccccc2C(=O)N1CCN1CCC(c2noc3cc(F)ccc23)CC1.Cl [2,3-Dihydro-2-[2-[4-(6-fluoro-1,2-benzisoxazol-3-yl)-1-piperidinyl]ethyl]-3-methylene-1H-isoindol-1-one hydrochloride] | 0.64 | –
CCCCCCCCCC(=O)OCCCCN1CCC(c2noc3cc(F)ccc23)CC1.O=C(O)/C=C/C(=O)O [4-[4-(6-Fluoro-1,2-benzisoxazol-3-yl)-1-piperidinyl]butyl decanoate fumarate] | 3.31 | –
Cc1ccc2c(c1)CN(CCN1CCN(c3n[nH]c4cc(F)ccc34)CC1)C2 [4-(Fluoro-1H-indazol-3-yl)-1-[2-(2,3-dihydro-5-methyl-1H-isoindol-2-yl)-ethyl]piperazine difumarate] | 0.17 | –
Cl.Cl.NCCCN1CCC(c2noc3cc(F)ccc23)CC1 [1-(3-Aminopropyl)-4-(6-fluoro-1,2-benzisoxazol-3-yl)piperidine dihydrochloride] | 22.6 | –
COc1cc(C(C)=O)ccc1OCCCCN1CCC(c2noc3ccccc23)CC1 [1-[4-[4-[4-(1,2-Benzisoxazol-3-yl)-1-piperidinyl]butoxy]-3-methoxyphenyl]ethanone] | 1.6 | –
OCCCN1CCC(c2noc3cc(F)ccc23)CC1 [6-Fluoro-3-[1-(3-hydroxypropyl)-4-piperidinyl]-1,2-benzisoxazole] | 4.1 | –
COc1cccc2c1C(=O)N(CCN1CCC(c3noc4cc(F)ccc34)CC1)C2=O [N-[2-[4-(6-fluoro-1,2-benzisoxazol-3-yl)-1-piperidinyl]ethyl]-3-methoxyphthalimide] | 0.16 | –
Fc1ccc2c(C3CCN(CCN4CCc5ccccc5C4)CC3)noc2c1 [N-12-[4-(6-Fluoro-1,2-benzisoxazol-3-yl)-1-piperidinyl]ethyl-1,2,3,4-tetrahydroisoquinoline difumarate] | 0.23 | –
Cc1ccc2c(c1)C(=O)N(CCN1CCN(c3n[nH]c4cc(F)ccc34)CC1)C2=O [N-[2-[4-(6-Fluoro-1H-indazol-3-yl)-1-piperazinyl]ethyl]-4-methylphthalimidedihydrochloride] | 0.37 | –
Cl.O=C1c2ccccc2C(=O)N1CCN1CCC(c2n[nH]c3cc(F)ccc23)CC1 [N-[2-[4-(6-Fluoro-1H-indazol-3-yl)-1-piperidinyl]ethyl]phthalimide hydrochloride] | 0.8 | –
O=C1c2ccccc2C(=O)N1CCN1CCN(c2n[nH]c3cc(F)ccc23)CC1 [N-[2-[4-(6-Fluoro-1H-indazol-3.-yl)-1-piperazinyl]ethyl]phthalimide] | 1.2 | –
O=C1c2ccccc2CN1CCN1CCC(c2noc3cc(F)ccc23)CC1 [2,3-dihydro-2-[2-[4-(6-Fluoro-1,2-benzisoxazol-3-yl)-1-piperidinyl]ethyl]-1H-isoindol-1-one] | 1.9 | –
CC1c2ccccc2C(=O)N1CCN1CCC(c2noc3cc(F)ccc23)CC1 (stereo not drawn) [2-[2-[4-(6-Fluoro-1,2-benzisoxazol-3-yl)-1-piperidinylethyl]-2,3-dihydro-3-methyl-1H-isoindol-1-one hydrochloride] | 1.17 | –
Fc1ccc2c(c1)CN(CCN1CCN(c3n[nH]c4ccccc34)CC1)C2.O=C(O)/C=C\C(=O)O.O=C(O)/C=C\C(=O)O [4-(1H-indazol-3-yl)-1-[2-(2,3-dihydro-5-fluoro-1H-isoindol-2-yl)ethyl]piperazine dimaleate] | 1.32 | –

SMILES | ED50 [mg/kg] | CLIMBING MOUSE ASSAY ED50 [mg/kg]
Cl.O=C1c2ccccc2C(=O)N1CCN1CCC(c2noc3cc(F)ccc23)CC1 [N-[2-[4-(6-Fluoro-1,2-benzisoxazol-3-yl)-1-piperidinyl]ethyl]phthalimide h ydrochloride] | 0.48 | –
Fc1ccc2c(C3CCN(CCN4CCCc5ccccc54)CC3)noc2c1.O=C(O)/C=C/C(=O)O [N-[2-[4-(6-Fluoro-1,2-benzisoxazol-3-yl)-1-piperidinyl]ethyl]-1,2,3,4-tetrahydroquinoline fumarate] | 1.19 | –
CC(=O)c1ccc(CCCCN2CCC(c3noc4cc(F)ccc34)CC2)cc1 [1-[4-(4'-Acetophenyl)butyl]-4-(6-fluoro-1,2-benzisoxazol-3-yl)piperidine] | 0.34 | –
Cl.O=C1c2ccc(O)cc2C(=O)N1CCN1CCC(c2noc3cc(F)ccc23)CC1 [N-[2-[4-(6-Fluoro-1,2-benzisoxazol-3-yl)-1-piperidinyl]ethyl]-4-hydroxyphthalimide hydrochloride] | 1.6 | –
O=C1c2ccccc2C(O)N1CCN1CCN(c2n[nH]c3cc(F)ccc23)CC1 (stereo not drawn) [2-[2-[4-(6-Fluoro-1H-indazol-3-yl)-1-piperazinyl]ethyl-2,3-dihydro-3-hydroxy-1H-isoindol-1-one hemifumarate] | 2.2 | –
Cl.O=C1c2ccccc2C(=O)N1CCN1CCC(c2nsc3cc(F)ccc23)CC1 [N-[2-[4-(6-Fluoro-1,2-benzisothiazol-3-yl)-1-piperidinyl]ethyl]phthalimide hydrochloride] | 0.38 | –
Cc1cccc2c1CN(CCN1CCN(c3n[nH]c4cc(F)ccc34)CC1)C2 [4-(6-Fluoro-1H-indazol-3,yl)-1-[2-(2.3-dihydro-4-methyl-1H-isoindol-2-yl)ethyl]piperazine difumarate] | 0.35 | –
Fc1ccc2c(N3CCN(CCN4Cc5ccccc5C4)CC3)n[nH]c2c1.O=C(O)/C=C\C(=O)O.O=C(O)/C=C\C(=O)O [4-(6-Fluoro-1H-indazol-3-yl)-1-[2-(2,3-dihydro-1H-isoindol-2-yl)-ethyl]piperazine dimaleate] | 0.25 | –
Fc1ccc2c(C3CCN(CCN4CCc5ccccc5C4)CC3)n[nH]c2c1.O=C(O)/C=C\C(=O)O.O=C(O)/C=C\C(=O)O [N-[2-[4-(6-Fluoro-1H-indazol-3-yl)-1-piperidinyl]ethyl]-1,2,3,4-tetrahydroisoquinoline dimaleate] | 0.44 | –
Cl.Cl.Fc1ccc2c(C3CCN(CCN4Cc5ccccc5C4)CC3)noc2c1 [4-(6-Fluoro-1,2-benzisoxazol-3-yl)-1-[2-(2,3-dihydro-1H-isoindol-2-yl)ethyl]-piperidine dihydrochloride] | 0.36 | –
Fc1ccc2c(C3CCN(CCC4COc5ccccc5O4)CC3)noc2c1 (stereo not drawn) [2-[4-(6-fluoro-1,2-benzisoxazol-3-yl)-1-piperidinyl]-ethyl]-1,4-benzodioxan] | 0.29 | –
Nc1ccc2c(c1)C(=O)N(CCN1CCC(c3noc4cc(F)ccc34)CC1)C2=O.O=C(O)/C=C/C(=O)O [N-[2-[4-(6-Fluoro-1,2-benzisoxazol-3-yl)-1-piperidinyl]ethyl]-4-aminophthalimide fumarate] | 0.097 | –
COc1cc(C(C)=O)ccc1OCCCCN1CCC(c2noc3cc(F)ccc23)CC1 [1-[4-[4-[4-(6-Fluoro-1,2-benzisoxazol-3-yl)-1-piperidinyl]butoxy]-3-methoxyphenyl]ethanone] | 0.68 | –
Fc1ccc2c(c1)CN(CCN1CCN(c3n[nH]c4cc(F)ccc34)CC1)C2.O=C(O)/C=C\C(=O)O.O=C(O)/C=C\C(=O)O [4-(6-Fluoro-1H-indazol-3-yl)-1-[2-(5-fluoro-2,3-dihydro-1H-isoindol-2-yl)-ethyl]piperazine dimaleate] | 0.16 | –
CC(CCN1C(=O)c2ccccc2C1=O)N1CCC(c2noc3cc(F)ccc23)CC1.Cl (stereo not drawn) [N,[3-[4-(6-Fluoro-1,2-benzisoxazol-3-yl)-1-piperidinyl]butyl]phthalimide hydrochloride] | – | 0.7
O=C1c2ccccc2C(=O)N1CCN1CCC(c2noc3cc(F)ccc23)CC1 [N-[2-[4-(6-Fluoro-1,2-benzisoxazol-3-yl)-1-piperidinyl]ethyl]phthalimide] | 5 | –
Cc1nc2ccccc2c(=O)n1CCN1CCC(c2noc3cc(F)ccc23)CC1 [3-[2-[4-(6-Fluoro-1,2-benzisoxazol-3-yl)-1-piperidinyl]ethyl]-2-methyl-3H-quinazolin-4-one] | 0.61 | –
O=C(CN1CCC(c2noc3cc(F)ccc23)CC1)N1Cc2ccccc2C1.O=C(O)/C=C/C(=O)O [2-[4-(6-Fluoro-1,2-benzisoxazol-3-yl)-1-piperidinyl]-1-(2,3-dihydro-1H-isoindol-2-yl)ethanone fumarate] | 2.33 | –
O=C1c2c(F)ccc(F)c2C(=O)N1CCN1CCC(c2noc3cc(F)ccc23)CC1 [N-[2-[4-(6-Fluoro-1,2-benzisoxazol-3-yl)-1-piperidinyl]ethyl]-3,6-difluorophthalimide] | 2.9 | –
